Test results reported in patent US8642592B2, “Oxo-heterocyclically substituted alkyl carboxylic acids and use thereof” (Bayer Intellectual Property GmbH, priority 2009, dated 2014).
pIC50: −log10 of the molar value.

Assays:
Heme-free sGC = target: T1, Heme-free sGC (Rattus norvegicus, UniProt P20595); test: Stimulation of recombinant soluble guanylate cyclase in vitro, heme-free enzyme; format: biochemical
T1 construct: made in house; host or cells: baculovirus/Sf9 insect cells
T1 sequence (P20595 1-619): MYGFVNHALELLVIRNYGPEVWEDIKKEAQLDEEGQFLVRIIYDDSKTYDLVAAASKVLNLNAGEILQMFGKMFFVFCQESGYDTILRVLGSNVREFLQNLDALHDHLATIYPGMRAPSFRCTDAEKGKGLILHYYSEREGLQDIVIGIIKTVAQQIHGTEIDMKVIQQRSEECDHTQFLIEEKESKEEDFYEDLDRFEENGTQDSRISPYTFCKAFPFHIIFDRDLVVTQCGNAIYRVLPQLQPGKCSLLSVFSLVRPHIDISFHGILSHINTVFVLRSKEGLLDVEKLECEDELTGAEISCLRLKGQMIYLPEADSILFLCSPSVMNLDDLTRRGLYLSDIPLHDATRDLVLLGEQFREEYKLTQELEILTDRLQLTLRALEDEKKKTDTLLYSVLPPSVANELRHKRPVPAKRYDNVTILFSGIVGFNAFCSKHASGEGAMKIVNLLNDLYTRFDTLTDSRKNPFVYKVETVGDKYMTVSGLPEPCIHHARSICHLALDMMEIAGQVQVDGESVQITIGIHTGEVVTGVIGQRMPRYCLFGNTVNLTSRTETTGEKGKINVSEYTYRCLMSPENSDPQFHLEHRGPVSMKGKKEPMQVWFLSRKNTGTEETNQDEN
T1 sequence (P19686 1-690 partner): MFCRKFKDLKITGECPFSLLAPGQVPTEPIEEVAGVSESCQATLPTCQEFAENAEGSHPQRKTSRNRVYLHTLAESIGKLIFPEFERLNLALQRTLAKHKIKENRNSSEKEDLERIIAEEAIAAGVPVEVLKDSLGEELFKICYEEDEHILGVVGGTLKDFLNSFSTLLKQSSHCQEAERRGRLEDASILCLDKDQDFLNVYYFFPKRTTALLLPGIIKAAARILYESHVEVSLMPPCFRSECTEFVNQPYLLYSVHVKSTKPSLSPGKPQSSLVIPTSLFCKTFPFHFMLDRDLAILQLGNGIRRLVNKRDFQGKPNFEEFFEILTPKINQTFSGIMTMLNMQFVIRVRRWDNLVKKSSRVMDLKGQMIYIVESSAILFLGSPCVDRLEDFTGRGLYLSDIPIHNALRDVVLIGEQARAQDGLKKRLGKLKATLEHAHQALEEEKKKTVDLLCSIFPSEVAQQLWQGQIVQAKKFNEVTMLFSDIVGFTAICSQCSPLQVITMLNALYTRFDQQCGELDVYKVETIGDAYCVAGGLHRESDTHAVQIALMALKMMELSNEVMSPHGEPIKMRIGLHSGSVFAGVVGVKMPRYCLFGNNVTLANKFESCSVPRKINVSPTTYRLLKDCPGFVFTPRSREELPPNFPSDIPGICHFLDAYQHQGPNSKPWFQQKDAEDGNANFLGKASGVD
Procedure: Investigations on the stimulation of recombinant soluble guanylate cyclase (sGC) by the compounds according to the invention with and without sodium nitroprusside, and with and without the heme-dependent sGC inhibitor 1H-1,2,4-oxadiazolo-(4,3a)-quinoxalin-1-one (ODQ) are carried out by the method described in detail in the following reference: M. Hoenicka, E. M. Becker, H. Apeler, T. Sirichoke, H. Schroeder, R. Gerzer and J.-P. Stasch, “Purified soluble guanylyl cyclase expressed in a baculovirus/Sf9 system: Stimulation by YC-1, nitric oxide, and carbon oxide”, J. Mol. Med. 77 (1999), 14-23. The heme-free guanylate cyclase is obtained by adding Tween 20 to the sample buffer (0.5% in the final concentration).
(§1) The activation of sGC by a test substance is reported as n-fold stimulation of the basal activity.

sGC = target: T2, sGC (Rattus norvegicus, UniProt P20595); test: sGC-activating activity in the CHO reporter cell in vitro; format: cell-based
T2 construct: expressed in transfected cells; host or cells: CHO reporter cell line
T2 sequence (P20595 1-619): T1 sequence (P20595 1-619)
T2 sequence (P19686 1-690 partner): T1 sequence (P19686 1-690 partner)
Procedure: The cellular action of the compounds according to the invention is determined at a recombinant guanylate cyclase reporter cell line, as described in F. Wunder et al., Anal. Biochem. 339, 104-112 (2005).

saphenous artery = test: Vasorelaxant effect in vitro (phenylephrine-contracted artery rings); design: species or system Rabbits; conditions: Oryctolagus cuniculus; concentration reducing phenylephrine-induced contraction of rabbit saphenous artery rings by 50%
Procedure: Rabbits are anesthetized and sacrificed by intravenous injection of thiopental sodium (about 50 mg/kg) and exsanguinated. The saphenous artery is removed and divided into rings 3 mm wide. The rings are mounted singly on in each case a pair of triangular hooks open at the end and made of 0.3 mm-thick special wire (Remanium®). Each ring is placed under an initial tension in 5 ml organ baths with Krebs-Henseleit solution which is at 37° C., is gassed with carbogen and has the following composition: NaCl 119 mM; KCl 4.8 mM; CaCl2×2 H2O 1 mM; MgSO4×7 H2O 1.4 mM; KH2PO4 1.2 mM; NaHCO3 25 mM; glucose 10 mM; bovine serum albumin 0.001%. The force of contraction is detected with Statham UC2 cells, amplified and digitized via A/D converters (DAS-1802 HC, Keithley Instruments, Munich) and recorded in parallel on chart recorders. Contractions are induced by addition of phenylephrine.
After several (generally 4) control cycles, the substance to be investigated is added in each further run in increasing dosage, and the level of the contraction achieved under the influence of the test substance is compared with the level of the contraction reached in the last preceding run. The concentration necessary to reduce the contraction reached in the preceding control by 50% is calculated from this (IC50). The standard application volume is 5 μl. The proportion of DMSO in the bath solution corresponds to 0.1%.

Heme-containing sGC = target: T3, Heme-containing sGC (Rattus norvegicus, UniProt P20595); test: Stimulation of recombinant soluble guanylate cyclase in vitro, heme-containing enzyme; format: biochemical
T3 construct: made in house; host or cells: baculovirus/Sf9 insect cells
T3 sequence (P20595 1-619): T1 sequence (P20595 1-619)
T3 sequence (P19686 1-690 partner): T1 sequence (P19686 1-690 partner)
Source text: Hoenicka, E. M. Becker, H. Apeler, T. Sirichoke, H. Schroeder, R. Gerzer and J.-P. Stasch, “Purified soluble guanylyl cyclase expressed in a baculovirus/Sf9 system: Stimulation by YC-1, nitric oxide, and carbon oxide”, J. Mol. Med. 77 (1999), 14-23. The heme-free guanylate cyclase is obtained by adding Tween 20 to the sample buffer (0.5% in the final concentration).
as §1

O=C(NCCCCC1(C(=O)O)CC1)C(c1ccc(CN2N=C(c3ccccc3)OCC2=O)cc1)C1CCCC1 (single isomer, unassigned; (+)) [Example 1, (+)-1-(4-{[2-cyclopentyl-2-{4-[(5-oxo-2-phenyl-5,6-dihydro-4H-1,3,4-oxadiazin-4-yl)methyl]phenyl}-acetyl]amino}butyl)cyclopropanecarboxylic acid]
Stimulation (n-fold) of heme-free sGC, Basal (Heme-free sGC; 0.1 μM Example 1): 1.4 n-fold | Stimulation (n-fold) of heme-free sGC, Basal (Heme-free sGC; 1 μM Example 1): 1.7 n-fold | Stimulation (n-fold) of heme-free sGC, Basal (Heme-free sGC; 10 μM Example 1): 8.4 n-fold | Stimulation (n-fold) of heme-free sGC, Basal (Heme-free sGC; 100 μM Example 1): 111.8 n-fold | MEC (minimum effective concentration), sGC-activating activity in the CHO reporter cell (sGC): 10 nM | pIC50 (saphenous artery): 6.55 | Stimulation (n-fold) of heme-containing sGC, Basal (Heme-containing sGC; 0.1 μM Example 1): 1.5 n-fold | Stimulation (n-fold) of heme-containing sGC, +0.1 μM DEA/NO (Heme-containing sGC; 0.1 μM Example 1 + 0.1 μM DEA/NO): 21.9 n-fold | Stimulation (n-fold) of heme-containing sGC, +10 μM ODQ (Heme-containing sGC; 0.1 μM Example 1 + 10 μM ODQ): 3.0 n-fold | Stimulation (n-fold) of heme-containing sGC, Basal (Heme-containing sGC; 1 μM Example 1): 1.4 n-fold | Stimulation (n-fold) of heme-containing sGC, +0.1 μM DEA/NO (Heme-containing sGC; 1 μM Example 1 + 0.1 μM DEA/NO): 19.3 n-fold | Stimulation (n-fold) of heme-containing sGC, +10 μM ODQ (Heme-containing sGC; 1 μM Example 1 + 10 μM ODQ): 3.7 n-fold | Stimulation (n-fold) of heme-containing sGC, Basal (Heme-containing sGC; 10 μM Example 1): 2.6 n-fold | Stimulation (n-fold) of heme-containing sGC, +0.1 μM DEA/NO (Heme-containing sGC; 10 μM Example 1 + 0.1 μM DEA/NO): 20.0 n-fold | Stimulation (n-fold) of heme-containing sGC, +10 μM ODQ (Heme-containing sGC; 10 μM Example 1 + 10 μM ODQ): 10.3 n-fold | Stimulation (n-fold) of heme-containing sGC, Basal (Heme-containing sGC; 100 μM Example 1): 14.0 n-fold | Stimulation (n-fold) of heme-containing sGC, +0.1 μM DEA/NO (Heme-containing sGC; 100 μM Example 1 + 0.1 μM DEA/NO): 37.8 n-fold | Stimulation (n-fold) of heme-containing sGC, +10 μM ODQ (Heme-containing sGC; 100 μM Example 1 + 10 μM ODQ): 46.6 n-fold | Effect of combination with the NO donor DEA/NO on sGC stimulation (Heme-containing sGC; combination with DEA/NO, heme-containing sGC): no synergistic effect | Effect of the heme-dependent sGC inhibitor ODQ on sGC activation (Heme-containing sGC; with ODQ, heme-containing sGC, effect is in fact increased): not blocked
